Laboratory results reported in US20130231346A1, “METHODS OF TREATING CANCER” (GLAXOSMITHKLINE INTELLECTUAL PROPERTY (NO.2) LIMITED, priority 2010, published 2013).

Assays:
Assay type in all cases: cell-based
H2009 NSCLC cells = experiment: Caspase 3/7 activation, H2009; design: key: −: lack of caspase 3/7 activation after 24 hours of compound treatment; ++: moderate; +++: strong; ++++: very strong; conditions: H2009, KRAS^G12A; BRG1 WT, LKB1 WT, CDKN2A WT; 24 hours
Experimental: (§2) Inhibition of cell growth and induction of apoptosis were determined by CellTiter-Glo® and caspase 3/7 activation assays after 72 and 24 hours of treatment, respectively.

H2291 NSCLC cells = experiment: Caspase 3/7 activation, H2291; design: key: −: lack of caspase 3/7 activation after 24 hours of compound treatment; ++: moderate; +++: strong; ++++: very strong; conditions: H2291, KRAS^G12F; BRG1 WT, LKB1 WT, CDKN2A WT; 24 hours
Experimental: as §2

H460 NSCLC cells = experiment: Caspase 3/7 activation, H460; design: key: −: lack of caspase 3/7 activation after 24 hours of compound treatment; ++: moderate; +++: strong; ++++: very strong; conditions: H460, KRAS^Q61H; BRG1 WT, LKB1 MUT, CDKN2A MUT; 24 hours
Experimental: (§3) A panel of 24 non-small cell lung carcinoma (NSCLC) cell lines harboring RAS mutations was analyzed for genomic alterations, gene expression profiling and protein phosphorylation in MAPK and PI3K pathways. Inhibition of cell growth and induction of apoptosis were determined by CellTiter-Glo® and caspase 3/7 activation assays after 72 and 24 hours of treatment, respectively.

[1] = system: RAS-mutant NSCLC cell lines; experiment: Induction of apoptosis (caspase 3/7 activation) in panel of RAS-mutant NSCLC cell lines; conditions: Ras mut NSCLC cell lines, caspase 3/7 activation, 24 hours of treatment, trihydrate
Experimental: as §3

Calu1 NSCLC cells = experiment: Caspase 3/7 activation, Calu1; design: key: −: lack of caspase 3/7 activation after 24 hours of compound treatment; ++: moderate; +++: strong; ++++: very strong; conditions: Calu1, KRAS^G12c; BRG1 WT, LKB1 WT, CDKN2A WT; 24 hours
Experimental: as §3

SW1573 NSCLC cells = experiment: Caspase 3/7 activation, SW1573; design: key: −: lack of caspase 3/7 activation after 24 hours of compound treatment; ++: moderate; +++: strong; ++++: very strong; conditions: SW1573, KRAS^G12C; BRG1 WT, LKB1 WT, CDKN2A MUT; 24 hours
Experimental: as §3

H2030 NSCLC cells = experiment: Caspase 3/7 activation, H2030; design: key: −: lack of caspase 3/7 activation after 24 hours of compound treatment; ++: moderate; +++: strong; ++++: very strong; conditions: H2030, KRAS^G12c; BRG1 MUT, LKB1 MUT, CDKN2A WT; 24 hours
Experimental: as §2

Ras mutant cell lines = experiment: Cell proliferation assays, Ras mutant cell lines; conditions: in vitro
From the text: (§1) MEK proteins are a node in a certain extracellular signal-related kinase ERK pathway which is commonly hyper-activated In tumor cells. Oncogenic mutations in both B-raf and Ras signal through MEK1 and MEK2. In vitro, 80% of cell lines carrying activating mutations of B-Raf and 72% of Ras mutant cell lines were sensitive to N-{3-[3-cyclopropyl-5-(2-fluoro-4-iodo-phenylamino)-6,8-dimethyl-2,4,7-trioxo-3,4,6,7-tetrahydro-2H-pyrido[4,3-d]pyrimidin-1-yl]phenyl}acetamide, or a pharmaceutically acceptable salt in cell proliferation assays, and a majority (83% of hematopoietic cancers from acute or chronic myeloid leukemia (AML or CML, respectively) origins were also very sensitive.

[2] = system: cell lines carrying activating mutations of B-Raf; experiment: Cell proliferation assays, B-Raf mutant cell lines; conditions: in vitro
From the text: as §1

[3] = system: hematopoietic cancers from acute or chronic myeloid leukemia (AML or CML) origins; experiment: Cell proliferation assays, AML/CML lines; conditions: in vitro
From the text: as §1

Compound | Apoptosis Response (caspase 3/7 activation) (H2009 NSCLC cells) | Apoptosis Response (caspase 3/7 activation) (H2291 NSCLC cells) | Apoptosis Response (caspase 3/7 activation) (H460 NSCLC cells) | Response Rate (sensitivity/total lines tested), Cell Apoptosis (capsase 3/7) ([1]; listed as docetaxel) [%] | Response Rate (sensitivity/total lines tested), Cell Apoptosis (capsase 3/7) [1] | Apoptosis Response (caspase 3/7 activation) (Calu1 NSCLC cells) | Apoptosis Response (caspase 3/7 activation) (SW1573 NSCLC cells) | Apoptosis Response (caspase 3/7 activation) (H2030 NSCLC cells) | Share of cell lines sensitive in cell proliferation assays (Ras mutant cell lines) [%] | Share of cell lines sensitive in cell proliferation assays [2] [%] | Share of hematopoietic cancers very sensitive in cell proliferation assays [3] [%]
CC(=O)O[C@@]12CO[C@@H]1C[C@H](O)[C@@]1(C)C(=O)[C@H](O)C3=C(C)[C@@H](OC(=O)[C@H](O)[C@@H](NC(=O)OC(C)(C)C)c4ccccc4)C[C@@](O)([C@@H](OC(=O)c4ccccc4)[C@H]21)C3(C)C [Docataxel, (2R,3S)—N-carboxy-3-phenylisoserine,N-tert-butyl ester, 13-ester with 5β-20-epoxy-1,2α,4,7β,10β,13α-hexahydroxytax-11-en-9-one 4-acetate 2-benzoate, trihydrate] | − | − | ++ | 42 | 42% (10/24) | − | − | ++ |  |  | 
CC(=O)Nc1cccc(-n2c(=O)n(C3CC3)c(=O)c3c(Nc4ccc(I)cc4F)n(C)c(=O)c(C)c32)c1 [Compound A, N-{3-[3-cyclopropyl-5-(2-fluoro-4-iodo-phenylamino)-6,8-dimethyl-2,4,7-trioxo-3,4,6,7-tetrahydro-2H-pyrido[4,3-d]pyrimidin-1-yl]phenyl}acetamide] | − | ++ | − |  |  | − | − | − | 72 | 80 | 83
